In general, IC50 refers to the point on the concentration scale where inhibition reaches its midpoint.

Numbered stars: 1 amine (or outer) side, 2 acyl side, 3 side chain; on linkers, the order of the positions; unused ones are H or OH. Bridge positions count the residues as written; N and C are the ends. Square brackets hold non-standard residues; d marks the D form. Peptide text beside a SMILES is read from it. Tyr(Me) = Yme = 4-methoxy-L-phenylalanine (O-methyl-tyrosine), COc1ccc(C[C@H](N[*:1])C(=O)[*:2])cc1; Trp(1-Me) = Cn1cc(C[C@H](N)C(=O)O)c2ccccc21; 1Nal = N[C@@H](Cc1cccc2ccccc12)C(=O)O; 2Nal = N[C@@H](Cc1ccc2ccccc2c1)C(=O)O; dOrn = NCCC[C@@H](N)C(=O)O; Orn = NCCC[C@H](N)C(=O)O; Thp = NC1(C(=O)O)CCOCC1; Aib = CC(C)(N)C(=O)O; Ahx = NCCCCCC(=O)O; Ava = NCCCCC(=O)O

Sequences and labels used below:
B1: peptide compound SEQ ID NO: 1 (peptide)
peptide: Ac-[dK]NTWQL[Tyr(Me)][2Nal][Aib]DNN-NH2
modifications: lactam 1-10
SMILES: COc1ccc(C[C@@H]2NC(=O)[C@H](CC(C)C)NC(=O)[C@H](CCC(N)=O)NC(=O)[C@H](Cc3c[nH]c4ccccc34)NC(=O)[C@H]([C@@H](C)O)NC(=O)[C@H](CC(N)=O)NC(=O)[C@H](NC(C)=O)CCCCNC(=O)C[C@@H](C(=O)N[C@@H](CC(N)=O)C(=O)N[C@@H](CC(N)=O)C(N)=O)NC(=O)C(C)(C)NC(=O)[C@H](Cc3ccc4ccccc4c3)NC2=O)cc1

One experiment deals with T1, IL-23 receptor on the surface of HEK-Blue IL-23 cells (UniProt Q5VWK5 24-629, limits assumed).
T1 sequence (looked up): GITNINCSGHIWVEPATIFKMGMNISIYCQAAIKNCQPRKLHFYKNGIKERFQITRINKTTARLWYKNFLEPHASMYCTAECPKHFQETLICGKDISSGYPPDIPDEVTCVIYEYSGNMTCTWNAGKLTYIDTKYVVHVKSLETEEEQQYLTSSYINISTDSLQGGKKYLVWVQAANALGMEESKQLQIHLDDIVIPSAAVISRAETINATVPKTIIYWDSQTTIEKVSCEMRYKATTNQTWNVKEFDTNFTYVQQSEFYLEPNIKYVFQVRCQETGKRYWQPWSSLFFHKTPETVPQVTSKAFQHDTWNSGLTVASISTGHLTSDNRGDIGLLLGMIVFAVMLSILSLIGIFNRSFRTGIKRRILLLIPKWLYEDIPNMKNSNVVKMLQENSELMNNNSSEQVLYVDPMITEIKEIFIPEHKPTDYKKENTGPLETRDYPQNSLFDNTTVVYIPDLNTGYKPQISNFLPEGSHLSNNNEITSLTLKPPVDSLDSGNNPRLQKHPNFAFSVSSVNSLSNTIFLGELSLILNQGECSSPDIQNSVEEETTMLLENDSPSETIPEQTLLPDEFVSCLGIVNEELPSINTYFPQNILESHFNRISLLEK
As to the kind of experiment: cell-based or functional assay.
Details: not given
As to B1, the “Inhibition of IL-23 induced pSTAT3 (IC50 nM)” value was determined as 334 nM.

The next experiment addresses T2, human IL-23R (Homo sapiens, UniProt Q5VWK5).
T2 sequence (Q5VWK5 24-355 limits assumed): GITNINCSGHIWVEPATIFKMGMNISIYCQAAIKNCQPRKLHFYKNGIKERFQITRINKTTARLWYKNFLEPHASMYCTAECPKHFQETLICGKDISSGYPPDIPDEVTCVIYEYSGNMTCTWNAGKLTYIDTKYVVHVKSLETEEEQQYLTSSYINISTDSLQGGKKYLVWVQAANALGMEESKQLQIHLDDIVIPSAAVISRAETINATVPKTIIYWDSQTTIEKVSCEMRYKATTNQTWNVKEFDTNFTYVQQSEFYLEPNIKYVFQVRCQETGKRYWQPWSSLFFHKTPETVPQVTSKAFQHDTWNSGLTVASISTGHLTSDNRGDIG
The experiment is described as follows: Human ELISA IL-23/IL-23R binding inhibition. The note with it: human IL-23 coated, recombinant human IL-23R-Fc chimera. The procedure: Antagonism of peptide compounds for human interleukin-23 receptor inhibitors, was determined by an ELISA assay.
A 384-well plate was coated with 50 μl/well of human IL-23 at a final concentration of 1 μg/ml and incubated overnight at 4° C. The wells were washed 3 times with 80 μl wash buffer and blocked with 80 μl blocking buffer for 60 minutes at room temperature and washed again. 20 μl of serially diluted test peptides was added to each well and subsequently 20 μl of recombinant human IL-23R-Fc chimera at final concentration of 0.1 μg/ml. The plate was incubated for 60 minutes at room temperature. After the wells were washed, bound IL-23R-Fc was detected with goat anti-hu-lgG1-HRP antibody. Signals were visualized with QuantaBlu Fluorogenic Peroxidase Substrate.
On the technique in general: ELISA stands for enzyme-linked immunosorbent assay.
Consider `COc1ccc(C[C@@H]2NC(=O)[C@H](CCCNC(=N)N)NC(=O)[C@H](CCC(N)=O)NC(=O)[C@H](Cc3c[nH]c4ccccc34)NC(=O)[C@H]([C@@H](C)O)NC(=O)[C@H](CC(N)=O)NC(=O)[C@H](NC(C)=O)CCCNC(=O)CC[C@@H](C(=O)N[C@@H](CC(N)=O)C(=O)N[C@@H](CC(N)=O)C(N)=O)NC(=O)C(C)(C)NC(=O)[C@H](Cc3cccc4ccccc34)NC2=O)cc1` [compound 22] (Ac-[dOrn]NTWQRY(Me)[1Nal][Aib]ENN-NH2; lactam 1-10), for which the IC50 stood at 48.4 nM.
`CC(=O)N[C@H]1CC(=O)NCCC[C@@H](C(=O)N[C@@H](CC(N)=O)C(=O)N[C@@H](CC(N)=O)C(N)=O)NC(=O)C(C)(C)NC(=O)[C@H](Cc2ccc3ccccc3c2)NC(=O)[C@H](Cc2ccc(O)cc2)NC(=O)[C@H](CCCNC(=N)N)NC(=O)[C@H](CCC(N)=O)NC(=O)[C@H](Cc2cn(C)c3ccccc23)NC(=O)[C@H]([C@@H](C)O)NC(=O)[C@H](CC(N)=O)NC1=O` [compound 33] (Ac-DNT[Trp(1-Me)]QRY[2Nal][Aib][Orn]NN-NH2; lactam 1-10): the IC50 was found to be 3.36 nM.
In the case of `COc1ccc(C[C@@H]2NC(=O)[C@H](CCCNC(=N)N)NC(=O)[C@H](CCC(N)=O)NC(=O)[C@H](Cc3cn(C)c4ccccc34)NC(=O)[C@H]([C@@H](C)O)NC(=O)[C@H](CC(N)=O)NC(=O)[C@@H](NC(C)=O)CC(=O)NCCC[C@@H](C(=O)N[C@@H](CC(N)=O)C(=O)N[C@@H](CC(N)=O)C(N)=O)NC(=O)C(C)(C)NC(=O)[C@H](Cc3ccc4ccccc4c3)NC2=O)cc1` [compound 34] (Ac-DNT[Trp(1-Me)]QRY(Me)[2Nal][Aib][Orn]NN-NH2; lactam 1-10), the IC50 worked out at 2.16 nM.
The same measure, in the same setting: with `COc1ccc(C[C@@H]2NC(=O)[C@H](CCCNC(=N)N)NC(=O)[C@H](CCC(N)=O)NC(=O)[C@H](Cc3cn(C)c4ccccc34)NC(=O)[C@H]([C@@H](C)O)NC(=O)[C@H](CC(N)=O)NC(=O)[C@@H](NC(C)=O)CCC(=O)NCCC[C@@H](C(=O)N[C@@H](CC(N)=O)C(=O)N[C@@H](CC(N)=O)C(N)=O)NC(=O)C(C)(C)NC(=O)[C@H](Cc3ccc4ccccc4c3)NC2=O)cc1` [compound 35] (Ac-ENT[Trp(1-Me)]QRY(Me)[2Nal][Aib][Orn]NN-NH2; lactam 1-10) the figure was 4.55 nM; with `COc1ccc(C[C@@H]2NC(=O)[C@H](CCCNC(=N)N)NC(=O)[C@H](CCC(N)=O)NC(=O)[C@H](Cc3cn(C)c4ccccc34)NC(=O)[C@H]([C@@H](C)O)NC(=O)[C@H](CC(N)=O)NC(=O)[C@@H](NC(C)=O)CC(=O)NCCC[C@@H](C(=O)N[C@@H](CC(N)=O)C(=O)N[C@@H](CC(N)=O)C(N)=O)NC(=O)C(C)(C)NC(=O)[C@H](Cc3c[nH]c4ccccc34)NC2=O)cc1` [compound 36] (Ac-DNT[Trp(1-Me)]QRY(Me)W[Aib][Orn]NN-NH2; lactam 1-10), 19.5 nM; with `COc1ccc(C[C@@H]2NC(=O)[C@H](CCCNC(=N)N)NC(=O)[C@H](CCC(N)=O)NC(=O)[C@H](Cc3cn(C)c4ccccc34)NC(=O)[C@H]([C@@H](C)O)NC(=O)[C@H](CC(N)=O)NC(=O)[C@@H](NC(C)=O)CC(=O)NCCC[C@@H](C(=O)N[C@@H](CC(N)=O)C(=O)N[C@@H](CC(N)=O)C(N)=O)NC(=O)[C@H](CC(C)C)NC(=O)[C@H](Cc3ccc4ccccc4c3)NC2=O)cc1` [compound 37] (Ac-DNT[Trp(1-Me)]QRY(Me)[2Nal]L[Orn]NN-NH2; lactam 1-10), 3.57 nM.
As to `COc1ccc(C[C@@H]2NC(=O)[C@H](CCCNC(=N)N)NC(=O)[C@H](CCC(N)=O)NC(=O)[C@H](Cc3c[nH]c4ccccc34)NC(=O)[C@H](Cc3c[nH]cn3)NC(=O)[C@H](CC(N)=O)NC(=O)[C@@H](NC(C)=O)CCCCNC(=O)C[C@@H](C(=O)N[C@@H](CC(N)=O)C(=O)N[C@@H](CC(N)=O)C(N)=O)NC(=O)C3(CCOCC3)NC(=O)[C@H](Cc3ccc4ccccc4c3)NC2=O)cc1` [compound 42] (Ac-KNHWQRY(Me)[2Nal][Thp]DNN-NH2; lactam 1-10), the half-inhibitory concentration (IC50) came out at 18.1 nM.
Consider `COc1ccc(C[C@@H]2NC(=O)[C@H](C)NC(=O)[C@H](CCC(N)=O)NC(=O)[C@H](Cc3c[nH]c4ccccc34)NC(=O)[C@H]([C@@H](C)O)NC(=O)[C@H](CC(N)=O)NC(=O)CCCCCNC(=O)C[C@@H](C(=O)N[C@@H](CC(N)=O)C(=O)N[C@@H](CC(N)=O)C(N)=O)NC(=O)C(C)(C)NC(=O)[C@H](Cc3ccc4ccccc4c3)NC2=O)cc1` [compound 43] ([Ahx]NTWQAY(Me)[2Nal][Aib]DNN-NH2; lactam N-10), for which the IC50 amounted to 1.44 nM.
On to `COc1ccc(C[C@@H]2NC(=O)[C@H](C)NC(=O)[C@H](CCC(N)=O)NC(=O)[C@H](Cc3c[nH]c4ccccc34)NC(=O)[C@H]([C@@H](C)O)NC(=O)[C@H](CC(N)=O)NC(=O)CCCCNC(=O)C[C@@H](C(=O)N[C@@H](CC(N)=O)C(=O)N[C@@H](CC(N)=O)C(N)=O)NC(=O)C(C)(C)NC(=O)[C@H](Cc3ccc4ccccc4c3)NC2=O)cc1` [compound 44] ([Ava]NTWQAY(Me)[2Nal][Aib]DNN-NH2; lactam N-10), for which the IC50 is 4.66 nM.
For `COc1ccc(C[C@@H]2NC(=O)[C@H](C)NC(=O)[C@H](CCC(N)=O)NC(=O)[C@H](Cc3c[nH]c4ccccc34)NC(=O)[C@H]([C@@H](C)O)NC(=O)[C@H](CCCNC(=N)N)NC(=O)[C@H](NC(C)=O)CCCCNC(=O)C[C@@H](C(=O)N[C@@H](CC(N)=O)C(=O)N[C@@H](CC(N)=O)C(N)=O)NC(=O)C(C)(C)NC(=O)[C@H](Cc3ccc4ccccc4c3)NC2=O)cc1` [compound 45] (Ac-[dK]RTWQAY(Me)[2Nal][Aib]DNN-NH2; lactam 1-10), the IC50 worked out at 0.96 nM.
Turning to `COc1ccc(C[C@@H]2NC(=O)[C@H](C)NC(=O)[C@H](CCC(N)=O)NC(=O)[C@H](Cc3c[nH]c4ccccc34)NC(=O)[C@H](CCCNC(=N)N)NC(=O)[C@H](CC(N)=O)NC(=O)[C@H](NC(C)=O)CCCCNC(=O)C[C@@H](C(=O)N[C@@H](CC(N)=O)C(=O)N[C@@H](CC(N)=O)C(N)=O)NC(=O)C(C)(C)NC(=O)[C@H](Cc3ccc4ccccc4c3)NC2=O)cc1` [compound 46] (Ac-[dK]NRWQAY(Me)[2Nal][Aib]DNN-NH2; lactam 1-10), the IC50 amounted to 1.38 nM.
Regarding `COc1ccc(C[C@@H]2NC(=O)[C@H](C)NC(=O)[C@H](CCC(N)=O)NC(=O)[C@H](Cc3c[nH]c4ccccc34)NC(=O)[C@H]([C@@H](C)O)NC(=O)[C@H](CC(N)=O)NC(=O)[C@H](NC(C)=O)CCCCNC(=O)C[C@@H](C(=O)N[C@@H](CC(N)=O)C(=O)N[C@@H](C)C(N)=O)NC(=O)C(C)(C)NC(=O)[C@H](Cc3ccc4ccccc4c3)NC2=O)cc1` [compound 48] (Ac-[dK]NTWQAY(Me)[2Nal][Aib]DNA-NH2; lactam 1-10), the IC50 was determined as 2.06 nM.
Turning to `COc1ccc(C[C@@H]2NC(=O)[C@H](C)NC(=O)[C@H](CCC(N)=O)NC(=O)[C@H](Cc3c[nH]c4ccccc34)NC(=O)[C@H]([C@@H](C)O)NC(=O)[C@H](CC(N)=O)NC(=O)[C@H](NC(C)=O)CCCCNC(=O)C[C@@H](C(=O)N[C@@H](C)C(=O)N[C@@H](CC(N)=O)C(N)=O)NC(=O)C(C)(C)NC(=O)[C@H](Cc3ccc4ccccc4c3)NC2=O)cc1` [compound 49] (Ac-[dK]NTWQAY(Me)[2Nal][Aib]DAN-NH2; lactam 1-10), the IC50 turned out to be 3.13 nM.
As to `COc1ccc(C[C@@H]2NC(=O)[C@H](C)NC(=O)[C@H](CCC(N)=O)NC(=O)[C@H](Cc3c[nH]c4ccccc34)NC(=O)[C@H]([C@@H](C)O)NC(=O)[C@H](CC(N)=O)NC(=O)[C@H](NC(C)=O)CCCCNC(=O)C[C@@H](C(=O)N[C@@H](C)C(=O)N[C@@H](C)C(N)=O)NC(=O)C(C)(C)NC(=O)[C@H](Cc3ccc4ccccc4c3)NC2=O)cc1` [compound 50] (Ac-[dK]NTWQAY(Me)[2Nal][Aib]DAA-NH2; lactam 1-10), the IC50 came out at 8.29 nM.

These data come from patent US20260250322A1, “NEW PEPTIDES AS SELECTIVE IL-23 RECEPTOR INHIBITORS” (SANOFI, priority 2023, published 2026).
